{"source": "PubChem BioAssay (NCI)", "experiment_in_all_cases": "DTP human tumour cell line panel, 48 h", "key": {"HCT-15 colon": {"test_system": "HCT-15 colon"}, "CAKI-1 renal": {"test_system": "CAKI-1 renal"}, "SF-268 CNS": {"test_system": "SF-268 CNS"}, "LOX IMVI melanoma": {"test_system": "LOX IMVI melanoma"}, "PC-3 prostate": {"test_system": "PC-3 prostate"}, "MDA-MB-231 breast": {"test_system": "MDA-MB-231 breast"}, "NCI-H23 lung": {"test_system": "NCI-H23 lung"}, "SNB-75 CNS": {"test_system": "SNB-75 CNS"}, "COLO 205 colon": {"test_system": "COLO 205 colon"}, "A498 renal": {"test_system": "A498 renal"}, "DU-145 prostate": {"test_system": "DU-145 prostate"}, "MDA-N": {"test_system": "MDA-N"}, "OVCAR-3 ovarian": {"test_system": "OVCAR-3 ovarian"}, "U251 CNS": {"test_system": "U251 CNS"}, "IGROV1 ovarian": {"test_system": "IGROV1 ovarian"}, "BT-549 breast": {"test_system": "BT-549 breast"}, "SF-295 CNS": {"test_system": "SF-295 CNS"}, "NCI-H522 lung": {"test_system": "NCI-H522 lung"}, "786-0 renal": {"test_system": "786-0 renal"}, "SK-MEL-28 melanoma": {"test_system": "SK-MEL-28 melanoma"}, "KM12 colon": {"test_system": "KM12 colon"}, "RPMI-8226 leukemia": {"test_system": "RPMI-8226 leukemia"}, "HT29 colon": {"test_system": "HT29 colon"}, "HCT-116 colon": {"test_system": "HCT-116 colon"}, "RXF 393 renal": {"test_system": "RXF 393 renal"}, "UACC-62 melanoma": {"test_system": "UACC-62 melanoma"}, "HOP-62 NSCLC": {"test_system": "HOP-62 NSCLC"}, "ACHN renal": {"test_system": "ACHN renal"}, "MCF7 breast": {"test_system": "MCF7 breast"}, "UACC-257 melanoma": {"test_system": "UACC-257 melanoma"}, "SW-620 colon": {"test_system": "SW-620 colon"}, "OVCAR-4 ovarian": {"test_system": "OVCAR-4 ovarian"}, "SK-OV-3 ovarian": {"test_system": "SK-OV-3 ovarian"}, "OVCAR-8 ovarian": {"test_system": "OVCAR-8 ovarian"}, "HS 578T breast": {"test_system": "HS 578T breast"}, "TK-10 renal": {"test_system": "TK-10 renal"}, "HOP-92 NSCLC": {"test_system": "HOP-92 NSCLC"}, "SK-MEL-5 melanoma": {"test_system": "SK-MEL-5 melanoma"}, "SNB-19 CNS": {"test_system": "SNB-19 CNS"}, "A549 NSCLC": {"test_system": "A549 NSCLC"}, "NCI-H226 lung": {"test_system": "NCI-H226 lung"}, "SK-MEL-2 melanoma": {"test_system": "SK-MEL-2 melanoma"}, "MALME-3M melanoma": {"test_system": "MALME-3M melanoma"}, "SF-539 CNS": {"test_system": "SF-539 CNS"}, "K-562 leukemia": {"test_system": "K-562 leukemia"}, "UO-31 renal": {"test_system": "UO-31 renal"}, "MDA-MB-435": {"test_system": "MDA-MB-435"}, "M14 melanoma": {"test_system": "M14 melanoma"}, "NCI/ADR-RES ovarian": {"test_system": "NCI/ADR-RES ovarian"}, "SN12C renal": {"test_system": "SN12C renal"}, "SR leukemia": {"test_system": "SR leukemia"}, "HCC-2998 colon": {"test_system": "HCC-2998 colon"}, "T-47D breast": {"test_system": "T-47D breast"}, "NCI-H460 lung": {"test_system": "NCI-H460 lung"}, "MOLT-4 leukemia": {"test_system": "MOLT-4 leukemia"}, "OVCAR-5 ovarian": {"test_system": "OVCAR-5 ovarian"}, "EKVX NSCLC": {"test_system": "EKVX NSCLC"}}, "note": "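Growth conditions: 96-well plates. Treatment: test compound, 48 hours, 5 concentrations. Analysis: linear interpolation between bracketing concentrations; unreached endpoints set to highest concentration. TGI denotes the concentration required for complete inhibition of growth.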"}
{"smiles": "CC(C)(C)c1ccc(CN2CCN(C(c3ccccc3)c3ccc(Cl)cc3)CC2)cc1", "note": "(configuration not stated)", "values": [{"measurement": "TGI", "setting": "HCT-15 colon", "value": "> 100", "unit": "µM"}, {"measurement": "TGI", "setting": "CAKI-1 renal", "value": "> 100", "unit": "µM"}, {"measurement": "TGI", "setting": "SF-268 CNS", "value": "> 100", "unit": "µM"}, {"measurement": "TGI", "setting": "LOX IMVI melanoma", "value": "> 100", "unit": "µM"}, {"measurement": "TGI", "setting": "PC-3 prostate", "value": "> 100", "unit": "µM"}, {"measurement": "TGI", "setting": "MDA-MB-231 breast", "value": "> 100", "unit": "µM"}, {"measurement": "TGI", "setting": "NCI-H23 lung", "value": "> 100", "unit": "µM"}, {"measurement": "TGI", "setting": "SNB-75 CNS", "value": "> 100", "unit": "µM"}, {"measurement": "TGI", "setting": "COLO 205 colon", "value": "> 100", "unit": "µM"}, {"measurement": "TGI", "setting": "A498 renal", "value": "> 100", "unit": "µM"}, {"measurement": "TGI", "setting": "DU-145 prostate", "value": "> 100", "unit": "µM"}, {"measurement": "TGI", "setting": "MDA-N", "value": "> 100", "unit": "µM"}, {"measurement": "TGI", "setting": "OVCAR-3 ovarian", "value": "> 100", "unit": "µM"}, {"measurement": "TGI", "setting": "U251 CNS", "value": "> 100", "unit": "µM"}, {"measurement": "TGI", "setting": "IGROV1 ovarian", "value": "> 100", "unit": "µM"}, {"measurement": "TGI", "setting": "BT-549 breast", "value": "> 100", "unit": "µM"}, {"measurement": "TGI", "setting": "SF-295 CNS", "value": "> 100", "unit": "µM"}, {"measurement": "TGI", "setting": "NCI-H522 lung", "value": 85.1, "unit": "µM"}, {"measurement": "TGI", "setting": "786-0 renal", "value": "> 100", "unit": "µM"}, {"measurement": "TGI", "setting": "SK-MEL-28 melanoma", "value": "> 100", "unit": "µM"}, {"measurement": "TGI", "setting": "KM12 colon", "value": "> 100", "unit": "µM"}, {"measurement": "TGI", "setting": "RPMI-8226 leukemia", "value": "> 100", "unit": "µM"}, {"measurement": "TGI", "setting": "HT29 colon", "value": 56.9, "unit": "µM"}, {"measurement": "TGI", "setting": "HCT-116 colon", "value": "> 100", "unit": "µM"}, {"measurement": "TGI", "setting": "RXF 393 renal", "value": 82.7, "unit": "µM"}, {"measurement": "TGI", "setting": "UACC-62 melanoma", "value": "> 100", "unit": "µM"}, {"measurement": "TGI", "setting": "HOP-62 NSCLC", "value": "> 100", "unit": "µM"}, {"measurement": "TGI", "setting": "ACHN renal", "value": "> 100", "unit": "µM"}, {"measurement": "TGI", "setting": "MCF7 breast", "value": "> 100", "unit": "µM"}, {"measurement": "TGI", "setting": "UACC-257 melanoma", "value": "> 100", "unit": "µM"}, {"measurement": "TGI", "setting": "SW-620 colon", "value": "> 100", "unit": "µM"}, {"measurement": "TGI", "setting": "OVCAR-4 ovarian", "value": "> 100", "unit": "µM"}, {"measurement": "TGI", "setting": "SK-OV-3 ovarian", "value": "> 100", "unit": "µM"}, {"measurement": "TGI", "setting": "OVCAR-8 ovarian", "value": "> 100", "unit": "µM"}, {"measurement": "TGI", "setting": "HS 578T breast", "value": "> 100", "unit": "µM"}, {"measurement": "TGI", "setting": "TK-10 renal", "value": "> 100", "unit": "µM"}, {"measurement": "TGI", "setting": "HOP-92 NSCLC", "value": "> 100", "unit": "µM"}, {"measurement": "TGI", "setting": "SK-MEL-5 melanoma", "value": 73.1, "unit": "µM"}, {"measurement": "TGI", "setting": "SNB-19 CNS", "value": "> 100", "unit": "µM"}, {"measurement": "TGI", "setting": "A549 NSCLC", "value": "> 100", "unit": "µM"}, {"measurement": "TGI", "setting": "NCI-H226 lung", "value": 62.2, "unit": "µM"}, {"measurement": "TGI", "setting": "SK-MEL-2 melanoma", "value": "> 100", "unit": "µM"}, {"measurement": "TGI", "setting": "MALME-3M melanoma", "value": "> 100", "unit": "µM"}, {"measurement": "TGI", "setting": "SF-539 CNS", "value": "> 100", "unit": "µM"}, {"measurement": "TGI", "setting": "K-562 leukemia", "value": "> 100", "unit": "µM"}, {"measurement": "TGI", "setting": "UO-31 renal", "value": "> 100", "unit": "µM"}, {"measurement": "TGI", "setting": "MDA-MB-435", "value": "> 100", "unit": "µM"}, {"measurement": "TGI", "setting": "M14 melanoma", "value": "> 100", "unit": "µM"}, {"measurement": "TGI", "setting": "NCI/ADR-RES ovarian", "value": "> 100", "unit": "µM"}, {"measurement": "TGI", "setting": "SN12C renal", "value": "> 100", "unit": "µM"}, {"measurement": "TGI", "setting": "SR leukemia", "value": "> 100", "unit": "µM"}, {"measurement": "TGI", "setting": "HCC-2998 colon", "value": 89.4, "unit": "µM"}, {"measurement": "TGI", "setting": "T-47D breast", "value": 54.9, "unit": "µM"}, {"measurement": "TGI", "setting": "NCI-H460 lung", "value": "> 100", "unit": "µM"}, {"measurement": "TGI", "setting": "MOLT-4 leukemia", "value": "> 100", "unit": "µM"}, {"measurement": "TGI", "setting": "OVCAR-5 ovarian", "value": "> 100", "unit": "µM"}, {"measurement": "TGI", "setting": "EKVX NSCLC", "value": "> 100", "unit": "µM"}]}
